Key:
[1] = test system: Her2 exon 20 insertion YVMA transduced NIH-3T3 cell line; assay: Cell proliferation, Her2 YVMAins NIH-3T3 (CellTiter-Glo, 72 h); type: cell-based; settings: Mus musculus, NIH3T3, 72 h, Her2 YVMAins cells, 72 h proliferation; read-out: Her2 Exon 20 YVMA insertion GI50;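 further: viable cells quantified by ATP luminescence, growth over a day-zero baseline plate expressed as percent of DMSO control growth, compound dilution series in 10% FBS medium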
[2] = Rat pharmacokinetic study after oral administration (SOA); type: in vivo; settings: male Han Wistar rats
Procedure: For rat pharmacokinetic studies, six male Han Wistar rats were purchased from Beijing Vital River and orally dosed with the test compound at 10 mg/kg in 0.5% Tween-80 and 0.5% hydroxypropyl methylcellulose (v/w). At, 0.5, 1, 2, 4, 7 and 16 hours post-dose, blood samples (>100 µL/time point) were collected from portal vein and via cardiac puncture into separate K2EDTA […] tubes, and then immediately centrifuged at 1500 g, 5 min at 4° C. to separate plasma. The plasma samples were deproteinized with 4 fold acetonitrile (including internal standard), vortex for 10 min and centrifuges for 10 minutes at 4000 g at 4° C.. The supernatantswere submitted to LC/MS/MS (API 5500, Applied Biosystems, Foster City) analysis. Two sets of standard curves were run at the beginning and end of each batch from plasma sample analysis.
Compound absorption was measured by portal vein AUC (AUCHPV) and systemic AUC (AUCSYS) observed maximum concentration (Cmax) in rats after oral administration. Dose is the actual dose used in SOA study. Find below in Table 9 data for exemplary tested compounds.

[3] = test system: NSCLC with EGFR Exon20ins; assay: Anti-tumor activity in platinum-pretreated NSCLC patients with EGFR Exon20 insertion mutations; type: in vivo, human
[4] = test system: Ba/F3 EGFR ASV ins cells; assay: Cell proliferation, Ba/F3 EGFR ASV ins (CellTiter-Glo, 72 h); type: cell-based; settings: Ba/F3 EGFR, 72 h, Ba/F3 EGFR ASV ins, 72 h proliferation; read-out: EGFR Exon20 ASV insertion GI50;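 further: IL3-independent Ba/F3 cells transduced with EGFR V769_D770insASV, cellular ATP luminescence after compound exposure, growth relative to DMSO control with the day-0 baseline reading subtracted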
[5] = biological target: T1, EGFR L858R&T790M (Homo sapiens, UniProt P00533, L858R/T790M); assay: EGFR L858R and T790M cellular phosphorylation inhibition in NCI-H1975 (MSD); type: cell-based; settings: NCI-H1975 cells, 4 h compound, p-EGFR(Y1068)/total EGFR; read-out: EGFR L858R and T790M mutation IC50;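 further: phosphorylated and total EGFR detected by electrochemiluminescence, cells exposed to compound in medium containing 1% FBS at 37 °C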
T1 construct: host or cells: NCI-H1975
Procedure: One day before the test, WT or mutant cells were seeded in 96 well plates at appropriate concentrations with corresponding growth media supplemented with 1% FBS, and incubated overnight. The next day, tested compounds at a series of concentrations were added into each individual well of the plates, and the plates were incubated for 4 h at 37° C. with 5% CO2.
The EGFR (Y1068) phosphorylation level (activity) of cells in each well were then measured with MSD kit named “MULTI-SPOT®96 4-Spot HB Prototype EGFR Triplex [sequence]: pEGFR(Tyr1068),pEGFR(Tyr1173), Total EGFR” according to the manufacturer’s instruction (MESO SCALE DISCOVERY, Cat# N45ZB-1). The assay is an electrochemiluminescent method for determining both phosphorylated and total EGFR of cells with an MSD SECTOR® Imager and the ratio of p-EGFR/total EGFR can be generated by the machine. The Her2 (Y1248) phosphorylation level (activity) of cells in each well were measured with MSD Kit named “Phospho-ErbB2 (Tyr1248) Assay Whole Cell Lysate Kit” according to the manufacturer’s instruction (MESO SCALE DISCOVERY, Cat# K151CLD-3). The assay is an electrochemiluminescent method (MESO SCALE DISCOVERY) for determining both phosphorylated and total Her2 of cells with an MSD SECTOR® Imager and then the ratio of p-Her2/total Her2 can be generated by the machine.

[6] = test system: Ri-1 cells; assay: BTK (wt) cell proliferation, Ri-1 (CellTiter-Glo, 72 h); type: cell-based; settings: Ri-1, 72 h, Ri-1 cells, 72 h, CellTiter-Glo; read-out: BTK WT Ri-1 GI50;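 further: viable cells quantified as cellular ATP luminescence, proliferation normalized to a time-zero plate and the DMSO control, compounds tested across a dilution series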
[7] = test system: TMD-8 cells; assay: BTK (wt) cell proliferation, TMD-8 (CellTiter-Glo, 72 h); type: cell-based; settings: Homo sapiens, TMD8, 72 h, TMD-8 cells, 72 h, CellTiter-Glo; read-out: BTK WT TMD-8 GI50;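 further: viable cells quantified by ATP-based luminescence, proliferation expressed as percent of DMSO control after subtracting a time-zero baseline plate read at dosing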

T1 sequence (P00533 25-1210 T790M/L858R): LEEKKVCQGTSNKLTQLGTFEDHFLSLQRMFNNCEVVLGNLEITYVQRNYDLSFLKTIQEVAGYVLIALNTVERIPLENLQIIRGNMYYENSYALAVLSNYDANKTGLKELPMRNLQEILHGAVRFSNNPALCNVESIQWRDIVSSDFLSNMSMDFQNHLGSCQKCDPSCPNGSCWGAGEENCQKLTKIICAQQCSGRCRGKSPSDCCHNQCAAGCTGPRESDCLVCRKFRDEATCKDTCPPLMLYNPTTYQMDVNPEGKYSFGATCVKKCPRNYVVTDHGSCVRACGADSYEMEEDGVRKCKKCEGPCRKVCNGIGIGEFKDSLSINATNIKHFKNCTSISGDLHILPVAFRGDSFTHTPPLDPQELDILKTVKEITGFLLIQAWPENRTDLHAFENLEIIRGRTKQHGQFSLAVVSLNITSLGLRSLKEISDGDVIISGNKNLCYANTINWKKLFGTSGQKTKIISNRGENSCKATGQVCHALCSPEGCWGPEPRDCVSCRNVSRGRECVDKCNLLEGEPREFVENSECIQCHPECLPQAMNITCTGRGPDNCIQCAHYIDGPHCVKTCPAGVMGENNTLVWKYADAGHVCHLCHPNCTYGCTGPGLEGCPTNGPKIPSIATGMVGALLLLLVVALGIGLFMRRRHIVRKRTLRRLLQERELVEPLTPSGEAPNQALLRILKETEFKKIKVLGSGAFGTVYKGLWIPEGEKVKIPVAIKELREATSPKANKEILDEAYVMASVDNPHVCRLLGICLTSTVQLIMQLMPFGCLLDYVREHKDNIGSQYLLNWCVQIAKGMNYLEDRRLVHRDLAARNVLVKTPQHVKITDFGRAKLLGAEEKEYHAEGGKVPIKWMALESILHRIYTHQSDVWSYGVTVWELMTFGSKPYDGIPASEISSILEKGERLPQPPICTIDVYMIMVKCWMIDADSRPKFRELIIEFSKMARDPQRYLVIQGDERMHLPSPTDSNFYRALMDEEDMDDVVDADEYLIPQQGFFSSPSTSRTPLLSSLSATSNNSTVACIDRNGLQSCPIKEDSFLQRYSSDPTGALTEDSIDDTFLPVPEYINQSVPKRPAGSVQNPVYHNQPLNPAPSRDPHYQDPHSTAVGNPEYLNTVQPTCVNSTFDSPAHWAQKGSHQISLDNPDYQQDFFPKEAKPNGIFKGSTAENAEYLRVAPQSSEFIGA

C=CC(=O)Nc1cc(Nc2nccc(Nc3cc(Cl)c(F)cc3C(C)(C)O)n2)c(OC)cc1N1CC[C@@H](N(C)C)C1 [Compound 52, (R)-N-(5-(4-(5-chloro-4-fluoro-2-(2-hydroxypropan-2-yl)phenylamino)pyrimidin-2-ylamino)-2-(3-(dimethylamino)pyrrolidin-1-yl)-4-methoxyphenyl)a crylamide]
GI50 [1]: 0.101 µM
SOA DN AUCSYS (ng·h/mL)/(mg/kg) ([2]; dose-normalised systemic AUC): 103 (ng·h/mL)/(mg/kg)
Cmax ([2]; rat, plasma, nominal 10 mg/kg (actual dose in c1)): 0.099 µg/mL
anti-tumor activity in earlier clinical studies [3]: Significant anti-tumor activities
GI50 [4]: 0.0832 µM
IC50 [5]: 0.0011 µM
GI50 [6]: 0.0513 µM
GI50 [7]: 0.0058 µM
